Source: patent publication US5247084A, “Derivatives of p-guanidinobenzoic acid” (priority 1985, dated 1993)
Where two headings read alike, the source gives them in different places.

What was measured:
[1] = acute toxicity test in mice by intravenous administration; settings: mouse, in vivo
[2] = target: T1, elastase from human neutrophil (Homo sapiens, UniProt P08246); experiment: Inhibitory effect on elastase (spectrophotometric method, substrate Suc-Ala-Pro-Ala-pNA); type: biochemical; settings: for IC50: pH 8.0, 37° C., 30 minutes
T1 construct: using elastase from human neutrophil; from tissue; host or cells: human neutrophil
T1 sequence (P08246 30-247 limits assumed): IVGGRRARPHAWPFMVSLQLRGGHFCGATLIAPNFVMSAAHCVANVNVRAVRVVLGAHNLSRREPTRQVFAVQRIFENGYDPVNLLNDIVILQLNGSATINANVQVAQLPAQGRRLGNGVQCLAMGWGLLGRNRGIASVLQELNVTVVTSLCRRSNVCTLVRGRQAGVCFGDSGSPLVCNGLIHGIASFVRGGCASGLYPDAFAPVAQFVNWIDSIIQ
Experimental: The test was carried out by the slight modification of the method of Bieth et al [see Biochem. Med., 75, 350 (1974)] using elastase from human neutrophil.
The reaction mixture consisted of 1 mM Suc-Ala-Pro-Ala-pNA (dissolving in N-methylpyrrolidone to the concentration of 100 mM, and then adding 1/100 amount of the solution to the reaction mixture.), 0.1 M buffer solution of tris-hydrochloric acid (pH 8.0), 0.2 M sodium chloride aqueous solution, the sample solution of various concentrations and enzyme solution in a final volume of 1.0 ml was incubated at 37° C. for 30 minutes.
The reaction was stopped by the addition of 100 μl of 50% acetic acid into the reaction mixture, and then p-nitro anilide released was measured on absorbance of 405 nm.
Inhibition percentage of the test compounds was caliculated by the following equation: [formula]

[3] = Y represents an oxygen atom, read-out: Inhibitory Effect on Elastase, IC50

| SMILES | LD50 [1] | IC50 [2, 3] | inhibition at 50 µg/mL ([2]; at 50 μg/ml (footnote 2), Y represents an oxygen atom, read-out: Inhibitory Effect on Elastase, Inhibition %) | IC50 ([2]; Y represents a sulfur atom, read-out: Elastase Inhibitory Effect, IC50) | inhibition at 50 µg/mL ([2]; at 50 μg/ml, Y represents a sulfur atom, read-out: Elastase Inhibitory Effect, Inhibition %) |
| --- | --- | --- | --- | --- | --- |
| CCN(CC)S(=O)(=O)c1ccc(OC(=O)c2ccc(NC(=N)N)cc2)cc1Cl [Example 94] | 50 to 150 mg/kg | 22 µM |  |  |  |
| CC(=O)O.CCS(=O)(=O)Oc1cc(Cl)cc(OC(=O)c2ccc(NC(=N)N)cc2)c1 [Example 75, p-guanidinobenzoic acid 3-chloro-5-ethanesulfonyloxyphenyl ester acetate] | 50 to 150 mg/kg | 1.1 µM |  |  |  |
| N=C(N)Nc1ccc(C(=O)Oc2ccccc2)cc1 [hydrogen, reference compound] | 50 to 150 mg/kg |  | 54.6% |  |  |
| N=C(N)Nc1ccc(C(=O)Sc2cc(Cl)ccc2Cl)cc1 [Example 135, p-guanidinobenzoic acid 2,5-dichlorothiophenyl ester methanesulfonate] | 50 to 150 mg/kg |  |  | 0.1 µM | 92.1% |
| CS(=O)(=O)O.N=C(N)Nc1ccc(C(=O)Oc2cc(O)cc(Cl)c2)cc1 [Example 112, p-guanidinobenzoic acid 3-chloro-5-hydroxyphenyl ester methanesulfonate] | 50 to 150 mg/kg | 8.3 µM |  |  |  |
